The values that follow come from patent publication US20240067655A1 (NEURON23, INC., priority 2020, published 2024).

pIC50: −log10 of the molar value. Where only a bound is given, the exact number is not on record here.

Experiment [1] has as its target T1, wt human LRRK2, catalytic site (Homo sapiens, UniProt Q5S007).
T1 construct: wt human LRRK2, catalytic site; purchased ThermoFisher/USA
Briefly: TR-FRET LanthaScreen Eu Kinase Binding Assay, LRRK2 wt (Example 72). The following applies: Example 72 text; one statement for LRRK2 (Wt) and LRRK2 (G2019); read-out: IC50, Inhibitory Activity Toward LRRK2 (Wt). As to the method:
(§1) The compounds in Tables 5-6 were tested for their inhibitory effect on a set of kinases according to the following procedures.
(§2) The basic protocol for TR-FRET LanthaScreen Eu Kinase Binding Assay inhibitor studies were performed as follows. LanthaScreen Kinase Binding Assays (ThermoFisher/USA) to evaluate inhibitors were performed by addition of 5 μl of test compound in corresponding DMSO dilutions/5 μl of kinase/antibody mixture, 5 μl of tracer into 384 well small volume plates. After incubation for 1 hour at room temperature, plates were read. Data analysis of emission ratios was according to LanthaScreen Eu Kinase Binding Assay protocol.
(§3) Kinase and assay components were adjusted to final concentrations according to the kit protocol. For LRRK2: 5 nM wt human LRRK2, catalytic site, or G2019S human LRRK2, catalytic site (ThermoFisher/USA), 2 nM Eu-Anti-GST Antibody, 10 nM Kinase Tracer 236 in 1× Kinase Buffer A. For NUAK1: 8 nM wt human NUAK1, full length (ThermoFisher/USA), 2 nM Eu-Anti-His Antibody, 5 nM Kinase Tracer 236 in 1× Kinase Buffer A.

Experiment [2] addresses T2, G2019S human LRRK2, catalytic site (Homo sapiens, UniProt Q5S007, G2019S).
T2 construct: G2019S human LRRK2, catalytic site; purchased ThermoFisher/USA
Briefly: TR-FRET LanthaScreen Eu Kinase Binding Assay, LRRK2 G2019S (Example 72). The following applies: Example 72 text; one statement for LRRK2 (Wt) and LRRK2 (G2019); read-out: IC50, Inhibitory Activity Toward LRRK2 (G2019). How it is done:
as §1, §2, §3

Experiment [3] addresses T3, wt human NUAK1, full length (Homo sapiens, UniProt O60285).
T3 construct: 8 nM wt human NUAK1, full length (ThermoFisher/USA); purchased ThermoFisher/USA
T3 sequence (O60285 1-661): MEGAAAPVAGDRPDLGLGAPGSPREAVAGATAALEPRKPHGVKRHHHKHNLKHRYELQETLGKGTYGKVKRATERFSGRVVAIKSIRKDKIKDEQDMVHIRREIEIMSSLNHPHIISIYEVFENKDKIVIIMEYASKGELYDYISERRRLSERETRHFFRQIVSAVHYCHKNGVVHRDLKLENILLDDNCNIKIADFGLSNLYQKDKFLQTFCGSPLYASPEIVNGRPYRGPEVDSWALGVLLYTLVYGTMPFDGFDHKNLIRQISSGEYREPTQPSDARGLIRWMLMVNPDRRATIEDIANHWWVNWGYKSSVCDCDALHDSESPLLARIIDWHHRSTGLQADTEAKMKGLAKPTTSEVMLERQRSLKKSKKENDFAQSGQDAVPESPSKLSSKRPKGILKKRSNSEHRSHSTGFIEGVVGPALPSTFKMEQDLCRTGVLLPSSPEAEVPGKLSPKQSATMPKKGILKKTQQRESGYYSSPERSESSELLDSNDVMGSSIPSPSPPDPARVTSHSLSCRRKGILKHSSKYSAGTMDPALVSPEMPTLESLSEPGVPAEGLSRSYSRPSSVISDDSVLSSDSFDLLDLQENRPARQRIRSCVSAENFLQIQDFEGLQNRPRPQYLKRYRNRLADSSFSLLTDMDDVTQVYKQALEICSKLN
The experiment can be described thus: TR-FRET LanthaScreen Eu Kinase Binding Assay, NUAK1 (Example 72). The following applies: Example 72 text; read-out: IC50, Inhibitory Activity Toward NUAK1. As to the method: as §1, §2, §3
On the technique in general: TR-FRET usually uses a lanthanide donor and a delayed reading to cut background.

Experiment [4] concerns the target T4, wt human TYK2, catalytic site (Homo sapiens, UniProt P29597).
T4 construct: wt human TYK2, catalytic site; purchased SignalChem/CAN
T4 sequence (P29597 897-1176 limits assumed): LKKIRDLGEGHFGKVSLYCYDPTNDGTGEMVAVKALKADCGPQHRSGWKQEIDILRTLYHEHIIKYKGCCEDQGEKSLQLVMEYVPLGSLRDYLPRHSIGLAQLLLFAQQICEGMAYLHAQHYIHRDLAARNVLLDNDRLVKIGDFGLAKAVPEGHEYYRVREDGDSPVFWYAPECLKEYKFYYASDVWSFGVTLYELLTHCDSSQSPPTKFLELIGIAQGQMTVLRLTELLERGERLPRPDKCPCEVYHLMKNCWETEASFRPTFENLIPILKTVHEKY
The experiment can be described thus: HTRF KinEASE assay, TYK2 (Example 72). The following applies: Example 72 text; read-out: IC50, Inhibitory Activity Toward TYK2. The format is biochemical. How it is done:
as §1
Basic protocol for HTRF KinEASE assay (Cisbio/FRA) inhibitor studies involved two steps:
Enzymatic step: Addition of 4 μl of test compound in corresponding DMSO dilutions, 4 μl of kinase/substrate mixture, 2 μl of ATP into 384 well small volume plates. Incubation for at least 30 minutes at room temperature.
Detection step: Addition of 5 μl antibody and 5 μl streptavidin-XL665, read plate after 60 minutes. Data analysis of emission ratios according to KinEASE assay protocol.
Kinase and assay components were adjusted to final concentrations according to the kit protocol. For TYK2: 2 nM wt human TYK2, catalytic site (SignalChem/CAN), 1 μM HTRF KinEASE-TK Substrate-biotin, 1 μM ATP in 1× Kinase Buffer

T1 sequence (Q5S007 1879-2138 limits assumed): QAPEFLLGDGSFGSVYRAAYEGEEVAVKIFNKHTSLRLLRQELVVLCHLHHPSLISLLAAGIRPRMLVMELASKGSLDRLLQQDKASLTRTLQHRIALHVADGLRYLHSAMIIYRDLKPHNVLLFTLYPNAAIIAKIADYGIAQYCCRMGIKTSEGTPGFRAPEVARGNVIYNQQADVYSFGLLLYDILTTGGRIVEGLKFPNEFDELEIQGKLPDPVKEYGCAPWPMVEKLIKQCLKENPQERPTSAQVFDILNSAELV
T2 sequence (Q5S007 1879-2138 G2019S limits assumed): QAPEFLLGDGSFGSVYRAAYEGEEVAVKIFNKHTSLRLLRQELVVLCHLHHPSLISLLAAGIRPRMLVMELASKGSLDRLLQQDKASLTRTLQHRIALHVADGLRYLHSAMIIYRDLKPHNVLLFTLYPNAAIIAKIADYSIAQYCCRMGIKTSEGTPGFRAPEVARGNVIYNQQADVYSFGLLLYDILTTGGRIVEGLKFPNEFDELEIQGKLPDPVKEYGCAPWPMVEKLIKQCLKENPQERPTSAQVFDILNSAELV

By pIC50 is commonly meant −log10 of the IC50, conventionally taken in molar units. With `Fc1cccc(F)c1C1=Nc2c[nH]nc2-c2cccc3ncn1c23` [Compound 301, 3-(2,6-difluorophenyl)-7H-1,2a,4,6,7-pentaazabenzo[cd]cyclopenta[f]azulene], the pIC50 is more than 8.00 in experiment [1], more than 8.00 in experiment [2] and 7.00 to 8.00 in experiment [3].

On to `Fc1cccc(F)c1C1=Nc2c[nH]nc2-c2cccc3cnn1c23` [Compound 302, 4-(2,6-difluorophenyl)-8H-pyrazolo[4′,3′:4,5][1,3]diazepino[6,7,1-hi]indazole], for which the negative logarithm of the IC50 (pIC50) in experiment [1] and in experiment [2] was more than 8.00 in each case.

Regarding `Fc1cccc(F)c1C1=Nc2cn[nH]c2-c2cncc3ncn1c23` [Compound 303, 3-(2,6-difluorophenyl)-7H-1,2a,4,6,7,9-hexaazabenzo[cd]cyclopenta[f]azulene], the negative logarithm of the IC50 (pIC50) is 6.00 to 7.00 in experiment [1], 6.00 to 7.00 in experiment [2], 6.00 to 7.00 in experiment [4] and 7.00 to 8.00 in experiment [3].

Turning to `Fc1cccc(F)c1C1=Nc2cn[nH]c2-c2cccc3nnn1c23` [Compound 304, 3-(2,6-difluorophenyl)-7H-1,2,2a,4,6,7-hexaazabenzo[cd]cyclopenta[f]azulene], the negative-log IC50 (pIC50) in experiment [1], in experiment [2] and in experiment [3] was 7.00 to 8.00 throughout.

Turning to `Fc1cccc(Cl)c1C1=Nc2cn[nH]c2-c2cccc3cnn1c23` [Compound 306, 4-(2-chloro-6-fluorophenyl)-8H-pyrazolo[4′,3′:4,5][1,3]diazepino[6,7,1-hi]indazole], the negative logarithm of the IC50 (pIC50) in experiment [1], in experiment [2] and in experiment [3] was 7.00 to 8.00 in each case.

Turning to `Fc1cccc(F)c1C1=Nc2cn[nH]c2-c2nnc3cccn1c2-3` [Compound 307, 9-(2,6-difluorophenyl)-3H-2,3,4,5,8a,10-hexaazabenzo[cd]cyclopenta[h]azulene], the pIC50 in experiment [1], in experiment [2] and in experiment [3] was 7.00 to 8.00 each time.

As to `Fc1cccc(F)c1C1=Nc2cn[nH]c2-c2cnn3c2N1CCC3` [Compound 308, 9-(2,6-difluorophenyl)-3,6,7,8-tetrahydro-2,3,5,5a,8a,10-hexaazabenzo[cd]cyclopenta[h]azulene], the negative-log IC50 (pIC50) in experiment [1] was more than 8.00; in experiment [2] it was more than 8.00; in experiment [3], 7.00 to 8.00.

`Clc1cccc(Cl)c1C1=Nc2c[nH]nc2-c2cccc3cnn1c23` [Compound 309, 4-(2,6-dichlorophenyl)-8H-pyrazolo[4′,3′:4,5][1,3]diazepino[6,7,1-hi]indazole]: the negative-log IC50 (pIC50) in experiment [1] and in experiment [2] was more than 8.00 each time.

As to `CC(=O)n1cc2c3c(cccc31)-c1n[nH]cc1N=C2c1c(F)cccc1F` [Compound 311, 1-(3-(2,6-difluorophenyl)pyrazolo[3′,4′:6,7]azepino[3,4,5-cd]indol-1(7H)-yl)ethan-1-one], the pIC50 in experiment [1] and in experiment [2] was 7.00 to 8.00 each time.

As for `Cc1cn2c3c(cccc13)-c1n[nH]cc1N=C2c1c(F)cccc1F` [Compound 313, 10-(2,6-difluorophenyl)-7-methyl-3H-pyrazolo[4′,3′:4,5][1,3]diazepino[6,7,1-hi]indole], the negative logarithm of the IC50 (pIC50) in experiment [1] is more than 8.00; in experiment [2], more than 8.00; in experiment [3], 7.00 to 8.00.

On to `Fc1cc2c3c(cnn3C(c3c(F)cccc3F)=Nc3c[nH]nc3-2)c1` [Compound 314, 4-(2,6-difluorophenyl)-10-fluoro-7H-pyrazolo[4′,3′:4,5][1,3]diazepino[6,7,1-hi]indazole], for which the pIC50 in experiment [1], in experiment [2] and in experiment [4] was 6.00 to 7.00 throughout.

For the molecule `Fc1ccc(F)c(C2=Nc3c[nH]nc3-c3cccc4cnn2c34)c1` [Compound 315, 4-(2,5-difluorophenyl)-8H-pyrazolo[4′,3′:4,5][1,3]diazepino[6,7,1-hi]indazole], the pIC50 in experiment [1] was more than 8.00; in experiment [2] it was more than 8.00; in experiment [3] it was 7.00 to 8.00.

In the case of `Fc1ccccc1C1=Nc2c[nH]nc2-c2cccc3cnn1c23` [Compound 316, 4-(2-fluorophenyl)-8H-pyrazolo[4′,3′:4,5][1,3]diazepino[6,7,1-hi]indazole], the pIC50 in experiment [1] and in experiment [2] was 7.00 to 8.00 in each case.

In the case of `Fc1cccc(F)c1C1=Nc2cn[nH]c2-c2ccc(F)c3cnn1c23` [Compound 317, 4-(2,6-difluorophenyl)-11-fluoro-8H-pyrazolo[4′,3′:4,5][1,3]diazepino[6,7,1-hi]indazole], the pIC50 was more than 8.00 in experiment [1], more than 8.00 in experiment [2] and 7.00 to 8.00 in experiment [3].
